Measured values: patent US20080014288A1, “Zinc-containing treatments for hyperphosphatemia” (priority 2004, published 2008)
Entries after “also recorded” stand apart in the source; their conditions may differ.

Tested on: house male Sprague Dawley (SD) rats
Assay: In vivo urinary phosphate excretion in rats fed test substance mixed in Purina 5002 diet
Set-up: species or system rat
Conditions: for % Urinary Phosphate Relative to that of Control Animals / Phosphate Excretion: Table 1; for Phosphate Excretion: urine collected on days 5 and 6; for amounts of urinary phosphate compared with control (in words): rats on zinc therapy vs control which did not go through the zinc therapy
Procedure: House male Sprague Dawley (SD) rats were used for the experiments.
To establish baseline phosphorus excretion, the rats were placed in metabolic cages for 48 hours. Their urine was collected and its phosphorus content analyzed with a Hitachi analyzer to determine phosphorus excretion in mg/day. Any rats with outlying values were excluded; and the remainder of the rats was distributed into groups.
Cellulose at 0.5% by weight was used as a negative control. For each rat, 200 g of diet was prepared.
Each rat was weighed and placed on the standard diet. After 4 days the standard diet was replaced with the treatment diet (or control diet for the control group). On days 5 and 6, urine samples from the rats at 24 hours (±30 minutes) were collected and analyzed. The test rats were again weighed, and any weight loss or gain was calculated. Any remaining food was also weighed to calculate the amount of food consumed per day. A change in phosphorus excretion relative to baseline and cellulose negative control was calculated using Excel program.
A change in phosphorus excretion relative to baseline and cellulose negative control was calculated using Excel program.

[1] = 0.5% of diet by weight in Purina 5002, cellulose 0.5% negative control
[2] = 0.5% of diet by weight in Purina 5002

## O=C[O-].O=C[O-].[Zn+2] [Zinc Formate]
[1]
  % Urinary Phosphate Relative to that of Control Animals: 48.5%
[2]
  Phosphate Excretion: 10.1 mg/day
  amounts of urinary phosphate compared with control (in words): much lower

## [Cl-].[Cl-].[Zn+2] [Zinc chloride]
[1]
  % Urinary Phosphate Relative to that of Control Animals: 50.6%
[2]
  Phosphate Excretion: 8.8 mg/day
  amounts of urinary phosphate compared with control (in words): much lower; also recorded: substantially reduce

## O=C([O-])C(=O)[O-].[Zn+2] [Zinc Oxalate]
[1]
  % Urinary Phosphate Relative to that of Control Animals: 78.0%
[2]
  Phosphate Excretion: 16.2 mg/day
  amounts of urinary phosphate compared with control (in words): much lower

## CC(=O)[O-].CC(=O)[O-].O.O.[Zn+2] [Zinc acetate dehydrate]
[1]
  % Urinary Phosphate Relative to that of Control Animals: 56.7%
[2]
  Phosphate Excretion: 9.4 mg/day
  amounts of urinary phosphate compared with control (in words): much lower
Listed as zinc acetate dihydrate
  amounts of urinary phosphate compared with control (in words): substantially reduce

## NCC(=O)[O-].NCC(=O)[O-].O.[Zn+2] [Zinc glycinate monohydrate]
[1]
  % Urinary Phosphate Relative to that of Control Animals: 79.7%
[2]
  Phosphate Excretion: 15.5 mg/day
monohydrate
  amounts of urinary phosphate compared with control (in words): much lower; also recorded: substantially reduce

## [O]=[Zn] [Zinc oxide]
[1]
  % Urinary Phosphate Relative to that of Control Animals: 18.4%
[2]
  Phosphate Excretion: 3.2 mg/day
  amounts of urinary phosphate compared with control (in words): much lower; also recorded: substantially reduce

## O.O.O=C([O-])CC(O)(CC(=O)[O-])C(=O)[O-].O=C([O-])CC(O)(CC(=O)[O-])C(=O)[O-].[Zn+2].[Zn+2].[Zn+2] [Zinc citrate dihydrate]
[1]
  % Urinary Phosphate Relative to that of Control Animals: 70.8%
[2]
  Phosphate Excretion: 12 mg/day
Citrate dihydrate
  amounts of urinary phosphate compared with control (in words): much lower; also recorded: substantially reduce

## [O-2].[Zn+2] [zinc oxide, nanopowder, zinc oxide]
0.25% of diet by weight in Purina 5002, cellulose negative control
  % Urinary Phosphate Relative to that of Control Animals: 50.7%
0.25% of diet by weight in Purina 5002
  Phosphate Excretion: 9.7 mg/day
